Laboratory results as given in ChEMBL document CHEMBL4507299, “Data for DCP probe PF-04554878” (2021).

Experiments:
[1] = target: Serine/threonine-protein kinase DCLK2 (Homo sapiens) (UniProt Q8N568)
[2] = target: Serine/threonine-protein kinase OSR1 (Homo sapiens) (UniProt O95747)
[3] = target: Protein kinase C epsilon type (Homo sapiens) (UniProt Q02156)
[4] = target: Dual specificity mitogen-activated protein kinase kinase 2 (Homo sapiens) (UniProt P36507)
[5] = target: Dual specificity protein kinase CLK3 (Homo sapiens) (UniProt P49761)
[6] = target: Muscarinic acetylcholine receptor M2 (Homo sapiens) (UniProt P08172); conditions: Compound concentration 10.0 uM
[7] = target: Angiopoietin-1 receptor (Homo sapiens) (UniProt Q02763)
[8] = target: Mitogen-activated protein kinase 13 (Homo sapiens) (UniProt O15264)
[9] = target: Serine/threonine-protein kinase 24 (Homo sapiens) (UniProt Q9Y6E0)
[10] = target: Bone morphogenetic protein receptor type-2 (Homo sapiens) (UniProt Q13873)
[11] = target: Atypical kinase COQ8B, mitochondrial (Homo sapiens) (UniProt Q96D53)
[12] = target: Muscarinic acetylcholine receptor M3 (Homo sapiens) (UniProt P20309); conditions: Compound concentration 10.0 uM
[13] = target: Mitogen-activated protein kinase kinase kinase 7 (Homo sapiens) (UniProt O43318)
[14] = target: Cyclin-dependent kinase 11B (Homo sapiens) (UniProt P21127)
[15] = target: Phosphatidylinositol 5-phosphate 4-kinase type-2 beta (Homo sapiens) (UniProt P78356)
[16] = target: Cyclin-dependent kinase 7 (Homo sapiens) (UniProt P50613)
[17] = target: Non-receptor tyrosine-protein kinase TYK2 (Homo sapiens) (UniProt P29597)
[18] = target: MAP/microtubule affinity-regulating kinase 4 (Homo sapiens) (UniProt Q96L34)
[19] = target: D(1B) dopamine receptor (Homo sapiens) (UniProt P21918); conditions: Compound concentration 10.0 uM
[20] = target: Cyclin-dependent kinase-like 5 (Homo sapiens) (UniProt O76039)
[21] = target: Serine/threonine-protein kinase ULK2 (Homo sapiens) (UniProt Q8IYT8)
[22] = target: Serine/threonine-protein kinase 17B (Homo sapiens) (UniProt O94768)
[23] = target: Interleukin-1 receptor-associated kinase 3 (Homo sapiens) (UniProt Q9Y616)
[24] = target: Tyrosine-protein kinase Srms (Homo sapiens) (UniProt Q9H3Y6)
[25] = target: Tyrosine-protein kinase Fes/Fps (Homo sapiens) (UniProt P07332)
[26] = target: Serine/threonine-protein kinase Nek10 (Homo sapiens) (UniProt Q6ZWH5)
[27] = system: Phosphatidylinositol 4,5-bisphosphate 3-kinase catalytic subunit alpha isoform (Homo sapiens), P42336 [H1047L]
[28] = target: Mitogen-activated protein kinase 15 (Homo sapiens) (UniProt Q8TD08)
[29] = target: Dual specificity protein kinase CLK1 (Homo sapiens, UniProt P49759)
[30] = system: ALK tyrosine kinase receptor (Homo sapiens), Q9UM73 [L1196M]
[31] = target: 3-phosphoinositide-dependent protein kinase 1 (Homo sapiens) (UniProt O15530)
[32] = target: D(4) dopamine receptor (Homo sapiens) (UniProt P21917); conditions: Compound concentration 10.0 uM
[33] = target: Serine/threonine-protein kinase pim-1 (Homo sapiens) (UniProt P11309)
[34] = target: Mitogen-activated protein kinase 3 (Homo sapiens) (UniProt P27361)
[35] = target: Serine/threonine-protein kinase VRK2 (Homo sapiens) (UniProt Q86Y07)
[36] = target: STE20-like serine/threonine-protein kinase (Homo sapiens) (UniProt Q9H2G2)
[37] = target: Cytoplasmic tyrosine-protein kinase BMX (Homo sapiens) (UniProt P51813)
[38] = target: Myosin light chain kinase family member 4 (Homo sapiens) (UniProt Q86YV6)
[39] = target: Muscarinic acetylcholine receptor M1 (Homo sapiens) (UniProt P11229); conditions: Compound concentration 10.0 uM
[40] = system: Mast/stem cell growth factor receptor Kit (Homo sapiens), P10721 [D816V]
[41] = target: Phosphatidylinositol 4,5-bisphosphate 3-kinase catalytic subunit gamma isoform (Homo sapiens) (UniProt P48736)
[42] = target: Hormonally up-regulated neu tumor-associated kinase (Homo sapiens) (UniProt P57058)
[43] = target: BMP-2-inducible protein kinase (Homo sapiens) (UniProt Q9NSY1)
[44] = target: Serine/threonine-protein kinase Chk2 (Homo sapiens) (UniProt O96017)
[45] = target: Mitogen-activated protein kinase 10 (Homo sapiens) (UniProt P53779)
[46] = Compound concentration 100.0 nM
[47] = Compound concentration 1000.0 nM

Myosin light chain kinase family member 4 (Homo sapiens), sequence (Q86YV6 whole entry): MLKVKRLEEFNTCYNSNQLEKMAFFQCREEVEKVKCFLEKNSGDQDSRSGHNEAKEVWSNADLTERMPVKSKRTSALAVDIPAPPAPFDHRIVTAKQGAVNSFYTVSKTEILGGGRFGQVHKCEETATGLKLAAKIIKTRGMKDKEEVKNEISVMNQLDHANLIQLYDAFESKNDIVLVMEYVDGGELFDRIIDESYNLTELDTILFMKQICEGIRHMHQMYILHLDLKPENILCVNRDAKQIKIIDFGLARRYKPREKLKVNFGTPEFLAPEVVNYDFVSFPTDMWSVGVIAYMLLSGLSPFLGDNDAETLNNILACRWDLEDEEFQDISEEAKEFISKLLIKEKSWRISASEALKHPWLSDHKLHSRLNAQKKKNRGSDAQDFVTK
Serine/threonine-protein kinase Nek10 (Homo sapiens), sequence (Q6ZWH5 whole entry, canonical isoform): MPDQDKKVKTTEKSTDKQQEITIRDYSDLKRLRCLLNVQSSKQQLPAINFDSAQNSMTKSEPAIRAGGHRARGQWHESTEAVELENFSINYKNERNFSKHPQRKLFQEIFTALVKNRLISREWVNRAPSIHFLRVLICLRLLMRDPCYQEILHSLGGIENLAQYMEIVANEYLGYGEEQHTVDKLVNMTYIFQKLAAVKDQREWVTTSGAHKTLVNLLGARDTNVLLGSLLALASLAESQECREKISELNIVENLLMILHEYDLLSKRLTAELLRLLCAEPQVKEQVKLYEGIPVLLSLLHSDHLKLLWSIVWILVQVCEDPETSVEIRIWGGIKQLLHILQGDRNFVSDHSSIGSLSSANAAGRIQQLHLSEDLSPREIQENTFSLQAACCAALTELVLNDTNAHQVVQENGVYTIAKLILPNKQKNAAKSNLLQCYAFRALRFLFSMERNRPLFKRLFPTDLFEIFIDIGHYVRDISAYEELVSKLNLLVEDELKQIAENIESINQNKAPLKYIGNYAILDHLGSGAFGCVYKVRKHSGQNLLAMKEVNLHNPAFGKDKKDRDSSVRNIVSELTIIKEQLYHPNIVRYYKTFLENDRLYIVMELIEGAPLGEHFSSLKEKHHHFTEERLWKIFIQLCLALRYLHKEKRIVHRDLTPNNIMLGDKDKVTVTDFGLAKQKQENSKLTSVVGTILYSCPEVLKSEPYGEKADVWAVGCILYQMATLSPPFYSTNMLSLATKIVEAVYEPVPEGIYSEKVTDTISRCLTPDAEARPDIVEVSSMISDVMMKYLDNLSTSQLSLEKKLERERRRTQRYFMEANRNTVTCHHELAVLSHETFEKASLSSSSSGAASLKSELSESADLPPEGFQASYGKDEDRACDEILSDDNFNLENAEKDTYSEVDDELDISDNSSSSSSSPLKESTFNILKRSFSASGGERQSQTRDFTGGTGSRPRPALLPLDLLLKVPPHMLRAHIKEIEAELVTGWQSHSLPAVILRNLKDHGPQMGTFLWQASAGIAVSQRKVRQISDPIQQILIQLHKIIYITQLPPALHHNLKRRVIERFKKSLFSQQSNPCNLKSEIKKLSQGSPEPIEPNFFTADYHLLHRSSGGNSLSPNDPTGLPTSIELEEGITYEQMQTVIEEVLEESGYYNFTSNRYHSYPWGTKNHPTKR
ALK tyrosine kinase receptor (Homo sapiens), Q9UM73 [L1196M], sequence (Q9UM73 whole entry L1196M, looked up): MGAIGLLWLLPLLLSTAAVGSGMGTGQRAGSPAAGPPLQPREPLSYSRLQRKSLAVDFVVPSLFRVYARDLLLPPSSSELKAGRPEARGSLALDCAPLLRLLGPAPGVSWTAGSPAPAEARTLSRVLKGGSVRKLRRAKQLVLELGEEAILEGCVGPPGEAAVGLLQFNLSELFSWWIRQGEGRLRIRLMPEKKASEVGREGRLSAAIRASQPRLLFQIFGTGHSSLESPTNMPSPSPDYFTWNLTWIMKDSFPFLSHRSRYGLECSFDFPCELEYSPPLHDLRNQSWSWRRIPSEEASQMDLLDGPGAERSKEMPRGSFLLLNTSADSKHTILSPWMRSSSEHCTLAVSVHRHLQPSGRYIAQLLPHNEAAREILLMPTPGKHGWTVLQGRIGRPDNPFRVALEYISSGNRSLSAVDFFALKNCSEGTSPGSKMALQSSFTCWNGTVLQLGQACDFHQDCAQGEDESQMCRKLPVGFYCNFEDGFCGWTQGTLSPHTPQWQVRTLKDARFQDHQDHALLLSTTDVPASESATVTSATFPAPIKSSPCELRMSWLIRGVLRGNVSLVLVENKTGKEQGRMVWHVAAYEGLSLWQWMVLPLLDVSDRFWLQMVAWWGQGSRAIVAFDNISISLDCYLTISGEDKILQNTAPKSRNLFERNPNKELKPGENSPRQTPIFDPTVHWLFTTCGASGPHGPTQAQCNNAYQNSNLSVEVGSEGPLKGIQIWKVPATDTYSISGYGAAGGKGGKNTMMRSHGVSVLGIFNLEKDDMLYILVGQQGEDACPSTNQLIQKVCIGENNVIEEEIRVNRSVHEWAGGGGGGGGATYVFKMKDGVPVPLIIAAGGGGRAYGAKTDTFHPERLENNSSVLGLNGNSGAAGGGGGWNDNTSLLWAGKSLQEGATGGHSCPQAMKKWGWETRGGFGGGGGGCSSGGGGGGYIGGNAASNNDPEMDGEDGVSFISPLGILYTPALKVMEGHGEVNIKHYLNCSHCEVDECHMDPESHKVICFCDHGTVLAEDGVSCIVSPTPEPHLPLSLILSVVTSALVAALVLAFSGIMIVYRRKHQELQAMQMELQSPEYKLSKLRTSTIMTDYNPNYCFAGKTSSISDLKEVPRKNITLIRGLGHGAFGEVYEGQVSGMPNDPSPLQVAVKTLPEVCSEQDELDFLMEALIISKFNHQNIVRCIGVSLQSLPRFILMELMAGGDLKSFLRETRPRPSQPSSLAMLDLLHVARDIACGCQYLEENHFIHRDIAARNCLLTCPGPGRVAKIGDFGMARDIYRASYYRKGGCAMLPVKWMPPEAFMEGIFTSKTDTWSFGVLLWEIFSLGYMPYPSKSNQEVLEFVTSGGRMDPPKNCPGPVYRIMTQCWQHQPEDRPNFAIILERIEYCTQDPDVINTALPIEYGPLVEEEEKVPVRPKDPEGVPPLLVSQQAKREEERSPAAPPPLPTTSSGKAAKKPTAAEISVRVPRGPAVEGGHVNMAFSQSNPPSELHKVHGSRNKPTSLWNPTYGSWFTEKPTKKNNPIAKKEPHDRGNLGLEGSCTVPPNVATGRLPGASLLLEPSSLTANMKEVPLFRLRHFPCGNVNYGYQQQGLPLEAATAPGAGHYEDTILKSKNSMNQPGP
Cyclin-dependent kinase 7 (Homo sapiens), sequence (P50613 whole entry): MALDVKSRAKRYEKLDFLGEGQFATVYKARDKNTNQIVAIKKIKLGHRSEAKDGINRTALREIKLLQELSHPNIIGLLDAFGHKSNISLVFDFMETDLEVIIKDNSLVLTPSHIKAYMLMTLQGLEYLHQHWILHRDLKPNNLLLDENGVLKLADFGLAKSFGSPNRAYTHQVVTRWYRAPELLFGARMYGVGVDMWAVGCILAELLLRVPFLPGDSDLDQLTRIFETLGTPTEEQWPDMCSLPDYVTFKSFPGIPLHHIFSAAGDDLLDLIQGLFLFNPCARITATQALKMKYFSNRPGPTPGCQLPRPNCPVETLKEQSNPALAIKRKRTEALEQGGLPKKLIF
Muscarinic acetylcholine receptor M1 (Homo sapiens), sequence (P11229 whole entry): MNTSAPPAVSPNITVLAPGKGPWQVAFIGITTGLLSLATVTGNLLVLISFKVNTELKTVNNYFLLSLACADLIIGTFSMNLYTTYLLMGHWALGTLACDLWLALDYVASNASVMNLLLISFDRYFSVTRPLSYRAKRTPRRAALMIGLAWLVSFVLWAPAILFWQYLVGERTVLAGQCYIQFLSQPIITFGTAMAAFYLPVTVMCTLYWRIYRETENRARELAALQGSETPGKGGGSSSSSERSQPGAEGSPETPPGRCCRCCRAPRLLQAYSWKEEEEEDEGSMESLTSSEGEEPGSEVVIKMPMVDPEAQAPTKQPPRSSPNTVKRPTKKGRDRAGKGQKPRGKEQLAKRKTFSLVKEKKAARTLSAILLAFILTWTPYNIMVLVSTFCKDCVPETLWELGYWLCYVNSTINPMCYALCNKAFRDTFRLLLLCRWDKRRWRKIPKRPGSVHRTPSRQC
Muscarinic acetylcholine receptor M3 (Homo sapiens), sequence (P20309 whole entry, looked up): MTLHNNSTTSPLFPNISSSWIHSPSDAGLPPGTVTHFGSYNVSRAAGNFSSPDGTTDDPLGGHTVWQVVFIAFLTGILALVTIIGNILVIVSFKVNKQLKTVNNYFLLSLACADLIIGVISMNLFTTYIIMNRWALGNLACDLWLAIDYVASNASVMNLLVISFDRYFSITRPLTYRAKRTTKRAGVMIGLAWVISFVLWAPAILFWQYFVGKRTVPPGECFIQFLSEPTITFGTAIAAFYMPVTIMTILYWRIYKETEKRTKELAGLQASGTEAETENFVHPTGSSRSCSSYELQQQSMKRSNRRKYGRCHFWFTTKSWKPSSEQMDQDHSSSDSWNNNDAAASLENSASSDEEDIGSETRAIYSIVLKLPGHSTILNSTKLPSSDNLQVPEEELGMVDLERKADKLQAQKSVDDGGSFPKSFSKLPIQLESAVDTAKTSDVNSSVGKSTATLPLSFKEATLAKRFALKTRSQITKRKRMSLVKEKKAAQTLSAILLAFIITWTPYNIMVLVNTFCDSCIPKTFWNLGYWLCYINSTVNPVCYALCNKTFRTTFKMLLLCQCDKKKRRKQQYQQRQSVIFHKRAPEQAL
Mitogen-activated protein kinase 10 (Homo sapiens), sequence (P53779 whole entry): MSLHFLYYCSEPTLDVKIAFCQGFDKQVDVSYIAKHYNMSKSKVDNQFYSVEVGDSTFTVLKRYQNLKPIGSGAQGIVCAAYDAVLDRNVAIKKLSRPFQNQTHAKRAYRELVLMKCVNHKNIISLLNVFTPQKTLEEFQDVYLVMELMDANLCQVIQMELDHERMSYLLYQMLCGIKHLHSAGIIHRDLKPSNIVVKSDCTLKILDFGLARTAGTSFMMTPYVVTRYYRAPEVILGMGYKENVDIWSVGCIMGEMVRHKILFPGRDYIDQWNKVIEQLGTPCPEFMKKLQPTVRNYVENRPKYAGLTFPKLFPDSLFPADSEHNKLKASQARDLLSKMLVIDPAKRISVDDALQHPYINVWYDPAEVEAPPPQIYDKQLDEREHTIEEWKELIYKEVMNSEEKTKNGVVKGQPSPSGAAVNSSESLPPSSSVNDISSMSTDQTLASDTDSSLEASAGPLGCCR

Compound: CNC(=O)c1ccc(Nc2ncc(C(F)(F)F)c(NCc3nccnc3N(C)S(C)(=O)=O)n2)cc1 [DEFACTINIB]
- residual activity [1, 46]: 71%
- residual activity [2, 46]: 100%
- residual activity [3, 46]: 100%
- residual activity [4, 46]: 100%
- residual activity [5, 46]: 97%
- inhibition [6]: 19.5%
- residual activity [7, 46]: 69%
- residual activity [8, 46]: 91%
- residual activity [9, 46]: 54%
- residual activity [10, 46]: 91%
- residual activity [11, 46]: 88%
- inhibition [12]: 23.8%
- residual activity [13, 46]: 57%
- residual activity [14, 46]: 95%
- residual activity [15, 46]: 91%
- residual activity [16, 46]: 59%
- residual activity [17, 46]: 87%
- residual activity [18, 46]: 83%
- inhibition [19]: -7.46%
- residual activity [20, 46]: 100%
- residual activity [21, 46]: 75%
- residual activity [22, 46]: 100%
- residual activity [23, 46]: 70%
- residual activity [24, 46]: 96%
- residual activity [25, 46]: 82%
- residual activity [26, 46]: 100%
- residual activity [27, 46]: 32%
- residual activity [28, 46]: 40%
- residual activity [29, 46]: 23%
- residual activity [30, 46]: 85%
- residual activity [31, 46]: 81%
- inhibition [32]: 7.8%
- residual activity [33, 46]: 93%
- residual activity [34, 46]: 86%
- residual activity [35, 46]: 85%
- residual activity [36, 46]: 53%
- residual activity [37, 46]: 71%
- residual activity [38, 46]: 100%
- inhibition [39]: 19.3%
- residual activity [40, 46]: 80%
- residual activity [41, 46]: 100%
- residual activity [42, 46]: 100%
- residual activity [43, 46]: 81%
- residual activity [44, 46]: 100%
- residual activity [45, 46]: 100%

Compound: CN(c1ccnc(CNc2nc(Nc3ccc4c(c3)CC(=O)N4)ncc2C(F)(F)F)n1)S(C)(=O)=O [PF-00911705]
- residual activity [1, 47]: 90%
- residual activity [2, 47]: 86%
- residual activity [3, 47]: 50%
- residual activity [4, 47]: 82%
- residual activity [5, 47]: 12%
- inhibition [6]: -2.08%
- residual activity [7, 47]: 50%
- residual activity [8, 47]: 100%
- residual activity [9, 47]: 93%
- residual activity [10, 47]: 60%
- residual activity [11, 47]: 84%
- inhibition [12]: -4.64%
- residual activity [13, 47]: 48%
- residual activity [14, 47]: 91%
- residual activity [15, 47]: 4.8%
- residual activity [16, 47]: 3.5%
- residual activity [17, 47]: 59%
- residual activity [18, 47]: 63%
- inhibition [19]: -0.97%
- residual activity [20, 47]: 87%
- residual activity [21, 47]: 5.4%
- residual activity [22, 47]: 48%
- residual activity [23, 47]: 11%
- residual activity [24, 47]: 62%
- residual activity [25, 47]: 74%
- residual activity [26, 47]: 90%
- residual activity [27, 47]: 92%
- residual activity [28, 47]: 4.8%
- residual activity [29, 47]: 4.4%
- residual activity [30, 47]: 65%
- residual activity [31, 47]: 54%
- inhibition [32]: 2.34%
- residual activity [33, 47]: 79%
- residual activity [34, 47]: 96%
- residual activity [35, 47]: 78%
- residual activity [36, 47]: 41%
- residual activity [37, 47]: 80%
- residual activity [38, 47]: 35%
- inhibition [39]: -6.58%
- residual activity [40, 47]: 28%
- residual activity [41, 47]: 100%
- residual activity [42, 47]: 100%
- residual activity [43, 47]: 2.3%
- residual activity [44, 47]: 0%
- residual activity [45, 47]: 56%
